One may read the EC50 as the concentration giving half of the maximal effect.

The assay concerns Glo-Response ARE-luc2P HEK293 cell line. Description: ARE luciferase reporter cell-based assay.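 Also: luciferase signal tracks Nrf2 activation of the ARE once compounds disrupt KEAP1-Nrf2 binding, read with One-Glo reagent, DMSO serving as low control.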 To be noted: Homo sapiens, HEK293, 24 h, average of results obtained. On the technique in general: Reporter assays use an easily measured gene product as a stand-in for the process of interest.

For `Cc1ccc([C@H](c2ccc3c(nnn3CC3CC3)c2C)C(C)(C)C(=O)O)cc1CN1CC2(CCOCC2)Oc2ncccc2S1(=O)=O` (single isomer, unassigned) [Example 429, (R*)-3-(1-(cyclopropylmethyl)-4-methyl-1H-benzo[d][1,2,3]triazol-5-yl)-3-(3-((1′,1′-dioxido-2,3,5,6-tetrahydrospiro[pyran-4,4′-pyrido[2,3-b][1,4,5]oxathiazepin]-2′(3′H)-yl)methyl)-4-methylphenyl)-2,2-dimethylpropanoic Acid], the EC50 was found to be 17800 nM.
Next, `Cc1ccc([C@H](CC(=O)O)c2ccc3c(nnn3C3CC3)c2C)cc1CN1CC2(CC2)N(C)c2ncccc2S1(=O)=O` (single isomer, unassigned) [Example 225, (*S)-3-(1-Cyclopropyl-4-methyl-1H-benzo[d][1,2,3]triazol-5-yl)-3-(4-methyl-3-((5′-methyl-1′,1′-dioxido-5′H-spiro[cyclopropane-1,4′-pyrido[2,3-f][1,2,5]thiadiazepin]-2′(3′H)-yl)methyl)phenyl)propanoic Acid]: 5 nM.
`Cc1cnc2c(c1)S(=O)(=O)N(Cc1cc(C(c3ccn4c(C(F)(F)F)nnc4c3C)C(C)(C)C(=O)O)ccc1C)CC1(CC1)O2` (stereo not shown) [Example 313, 2,2-Dimethyl-3-(4-methyl-3-((8′-methyl-1′,1′-dioxidospiro[cyclopropane-1,4′-pyrido[2,3-b][1,4,5]oxathiazepin]-2′(3′H)-yl)methyl)phenyl)-3-(8-methyl-3-(trifluoromethyl)-[1,2,4]triazolo[4,3-a]pyridin-7-yl)propanoic Acid] displayed an EC50 of 1.1 nM. This EC50 is about 4.5-fold lower than that of the molecule before.
The molecule `Cc1cnc2c(c1)S(=O)(=O)N(Cc1cc([C@H](CC(=O)O)c3ccn4c(C(F)(F)F)nnc4c3C)ccc1C)CC1(CC1)O2` (single isomer, unassigned) [Example 27, (*S)-3-(4-Methyl-3-((8′-methyl-1′,1′-dioxidospiro[cyclopropane-1,4′-pyrido[2,3-b][1,4,5]oxathiazepin]-2′(3′H)-yl)methyl)phenyl)-3-(8-methyl-3-(trifluoromethyl)-[1,2,4]triazolo[4,3-a]pyridin-7-yl)propanoic Acid] displayed an EC50 of 28.8 nM.
`CCn1nnc2c(C)c([C@@H](CC(=O)O)c3ccc(C)c(CN4C[C@H]5CCCCN5c5ncccc5S4(=O)=O)c3)ccc21` (single isomer, unassigned) [Example 145, (*S)-3-(3-(((*R)-5,5-Dioxido-7,7a,8,9,10,11-hexahydro-6H-dipyrido[2,1-d:2′,3′-f][1,2,5]thiadiazepin-6-yl)methyl)-4-methylphenyl)-3-(1-ethyl-4-methyl-1H-benzo[d][1,2,3]triazol-5-yl)propanoic Acid] came in with an EC50 of 1.1 nM. This EC50 lies about 26-fold lower than the previous one.
The molecule `Cc1ccc([C@H](CC(=O)O)c2ccn3c(C(F)(F)F)nnc3c2C)cc1CN1CC2CCCCN2c2ncc(Cl)cc2S1(=O)=O` (mixture of isomers) [Example 191, (3*S)-3-(3-((3-Chloro-5,5-dioxido-7,7a,8,9,10,11-hexahydro-6H-dipyrido[2,1-d:2′,3′-f][1,2,5]thiadiazepin-6-yl)methyl)-4-methylphenyl)-3-(8-methyl-3-(trifluoromethyl)-[1,2,4]triazolo[4,3-a]pyridin-7-yl)propanoic Acid] came in with an EC50 of 1.9 nM. This EC50 is about 1.7-fold higher than that of the molecule before.
Next, `Cc1c(C(CC(=O)O)c2ccc(Cl)c(CN3CC4(COC4)Oc4ccccc4S3(=O)=O)c2)ccn2c(C(F)(F)F)nnc12` (stereo not shown) [Example 95]: 1080 nM.
`CCn1nnc2c(C)c([C@@H](CC(=O)O)c3ccc(C)c(CN4C[C@@H]5CCCCN5c5ncccc5S4(=O)=O)c3)ccc21` (single isomer, unassigned) [Example 142, (*S)-3-(3-(((*S)-5,5-Dioxido-7,7a,8,9,10,11-hexahydro-6H-dipyrido[2,1-d:2′,3′-f][1,2,5]thiadiazepin-6-yl)methyl)-4-methylphenyl)-3-(1-ethyl-4-methyl-1H-benzo[d][1,2,3]triazol-5-yl)propanoic Acid] had a concentration for a half-maximal effect (EC50) of 1.1 nM.
The molecule `Cc1ccc([C@@H](c2ccn3c(C(F)(F)F)nnc3c2C)C(C)C(=O)O)cc1CN1C[C@@H]2CCCCN2c2ncccc2S1(=O)=O` (relative stereo) [Example 131, (3*S)-3-(3-(((*S)-5,5-Dioxido-7,7a,8,9,10,11-hexahydro-6H-dipyrido[2,1-d:2′,3′-f][1,2,5]thiadiazepin-6-yl)methyl)-4-methylphenyl)-2-methyl-3-(8-methyl-3-(trifluoromethyl)-[1,2,4]triazolo[4,3-a]pyridine-7-yl)propanoic Acid] had an EC50 of 1.6 nM.
`Cc1cnc2c(c1)S(=O)(=O)N(Cc1cc([C@@H](CC(=O)O)c3ccn4c(C(F)F)nnc4c3C)ccc1C)C[C@H]1CCCCN21` (stereo in doubt) [Example 504, (*R)-3-(3-(Difluoromethyl)-8-methyl-[1,2,4]triazolo[4,3-a]pyridin-7-yl)-3-(4-methyl-3-(((*R)-3-methyl-5,5-dioxido-7,7a,8,9,10,11-hexahydro-6H-dipyrido[2,1-d:2′,3′-f][1,2,5]thiadiazepin-6-yl)methyl)phenyl)propanoic Acid] returned an EC50 of 7.22 nM.
Next, `Cc1ccc(C(CC(=O)O)c2ccc3c(nnn3C3CC3)c2C)cc1CN1CC2(CC2)N(C)c2ncccc2S1(=O)=O` (racemic) [Example 224, (R/S)-3-(1-Cyclopropyl-4-methyl-1H-benzo[d][1,2,3]triazol-5-yl)-3-(4-methyl-3-((5′-methyl-1′,1′-dioxido-5′H-spiro[cyclopropane-1,4′-pyrido[2,3-f][1,2,5]thiadiazepin]-2′(3′H)-yl)methyl)phenyl)propanoic Acid]: 20 nM.
In the case of `Cc1ccc([C@H](c2ccn3c(C(F)(F)F)nnc3c2C)C(C)(C)C(=O)O)cc1CN1CC2(CCOCC2)Oc2nc(CCC(=O)NCCOCCN)ccc2S1(=O)=O` (single isomer, unassigned) [Example 344, (*R)-3-(3-((7′-(3-((2-(2-Aminoethoxy)ethyl)amino)-3-oxopropyl)-1′,1′-dioxido-2,3,5,6-tetrahydrospiro[pyran-4,4′-pyrido[2,3-b][1,4,5]oxathiazepin]-2′(3′H)-yl)methyl)-4-methylphenyl)-2,2-dimethyl-3-(8-methyl-3-(trifluoromethyl)-[1,2,4]triazolo[4,3-a]pyridin-7-yl)propanoic Acid] it was 4930 nM; in that of `Cc1ncc(C(c2ccn3c(C(F)(F)F)nnc3c2C)C(C)(C)C(=O)O)cc1CN1CC2(CCOCC2)Oc2ncccc2S1(=O)=O` (racemic) [Example 569, (R/S)-3-(5-((1′,1′-Dioxido-2,3,5,6-tetrahydrospiro[pyran-4,4′-pyrido[2,3-b][1,4,5]oxathiazepin]-2′(3′H)-yl)methyl)-6-methylpyridin-3-yl)-2,2-dimethyl-3-(8-methyl-3-(trifluoromethyl)-[1,2,4]triazolo[4,3-a]pyridin-7-yl)propanoic Acid], 1370 nM.
Consider `Cc1ccc([C@H](c2ccn3c(C(F)(F)F)nnc3c2C)C(C)C(=O)O)nc1CN1C[C@@H]2CCCCN2c2ncc(F)cc2S1(=O)=O` (relative stereo) [Example 506, (3*S)-3-(6-(((S)-3-fluoro-5,5-dioxido-7,7a,8,9,10,11-hexahydro-6H-dipyrido[2,1-d:2′,3′-f][1,2,5]thiadiazepin-6-yl)methyl)-5-methylpyridin-2-yl)-2-methyl-3-(8-methyl-3-(trifluoromethyl)-[1,2,4]triazolo[4,3-a]pyridin-7-yl)propanoic Acid], for which the midpoint of the response, the EC50, lay at 7.83 nM. This EC50 is about 170-fold lower than that of the molecule before.
Consider `CCn1nnc2c(C)c(C(CC(=O)O)c3ccc(C)c(CN4C[C@H]5COCCN5c5ncccc5S4(=O)=O)c3)ccc21` (mixture of isomers) [Example 135, (R/S)-3-(3-(((*S)-5,5-Dioxido-7a,8,10,11-tetrahydro-[1,4]oxazino[3,4-d]pyrido[2,3-f][1,2,5]thiadiazepin-6(7H)-yl)methyl)-4-methylphenyl)-3-(1-ethyl-4-methyl-1H-benzo[d][1,2,3]triazol-5-yl)propanoic Acid], for which the response was half-maximal at 24 nM (EC50).
In turn, `Cc1ccc([C@H](CC(=O)O)c2ccc3c(nnn3C3CC3)c2C)cc1CN1C[C@]2(C)CCCN2c2ncccc2S1(=O)=O` (relative stereo) [Example 219, (*S)-3-(1-Cyclopropyl-4-methyl-1H-benzo[d][1,2,3]triazol-5-yl)-3-(4-methyl-3-(((*S)-7a-methyl-5,5-dioxido-7a,8,9,10-tetrahydropyrido[2,3-f]pyrrolo[2,1-d][1,2,5]thiadiazepin-6(7H)-yl)methyl)phenyl)propanoic Acid] had an EC50 of 4.5 nM.
`CCn1nnc2c(C)c([C@H](CC(=O)O)c3ccc(C)c(CN4C[C@H]5CCCN5c5ccccc5S4(=O)=O)c3)ccc21` (single isomer, unassigned) [Example 154, (*R)-3-(3-(((R)-5,5-Dioxido-7a,8,9,10-tetrahydrobenzo[f]pyrrolo[2,1-d][1,2,5]thiadiazepin-6(7H)-yl)methyl)-4-methylphenyl)-3-(1-ethyl-4-methyl-1H-benzo[d][1,2,3]triazol-5-yl)propanoic Acid] registered an EC50 of 59 nM. This EC50 lies about 13-fold higher than the previous one.
Next, `CC[C@@H]1CN(Cc2cc([C@H](CC(=O)O)c3ccn4c(C(F)F)nnc4c3C)ccc2C)S(=O)(=O)c2cccnc2O1` (relative stereo) [Example 464, (*S)-3-(3-(Difluoromethyl)-8-methyl-[1,2,4]triazolo[4,3-a]pyridin-7-yl)-3-(3-(((R)-4-ethyl-1,1-dioxido-3,4-dihydro-2H-pyrido[2,3-b][1,4,5]oxathiazepin-2-yl)methyl)-4-methylphenyl)propanoic Acid]: 24.7 nM; `CCn1nnc2c(C)c(C(CC(=O)O)c3ccc(C)c(CN4CC(C)(C)Oc5ccccc5S4(=O)=O)c3)ccc21` (racemic) [Example 151, (R/S)-3-(3-((4,4-Dimethyl-1,1-dioxido-3,4-dihydro-2H-benzo[b][1,4,5]oxathiazepin-2-yl)methyl)-4-methylphenyl)-3-(1-ethyl-4-methyl-1H-benzo[d][1,2,3]triazol-5-yl)propanoic Acid]: 10 nM.

Source of the values: US10947252B2, “Inhibitors of KEAP1-Nrf2 protein-protein interaction” (Janssen Pharmaceutica NV, priority 2018, dated 2021).
